The values below come from ChEMBL document CHEMBL1158917, “Elabunin, a New Cytotoxic Triterpene from an East African Medicinal Plant, Elaeodendron buchananii” (1990).

Values after ≈ are worked out from the molar mass of the structure shown.

The experiment relates to L1210. As to the kind of experiment: Cytotoxicity against mouse L1210 cells. The settings on record: read-out: ED50 (the source's name). Format: functional.

`C=C(CCC=C(C)C)[C@H]1[C@H](O)C[C@]2(C)[C@@H]1CC[C@@H]1[C@@]3(C)CCC(=O)C(C)(C)[C@@H]3CC[C@]12C` [ELABUNIN]: the EC50 was 1 µg/mL (≈ 2.27 µM).
